Assay results reported in PMC5321607 (ACS infectious diseases, 2016).

Legend:
[1] = system: P. aeruginosa FADDI-PA001; assay: MIC by broth microdilution; type: cell-based; settings: CaMHB, 18 h, 37°C
[2] = system: K. pneumoniae FADDI-KP003; assay: MIC by broth microdilution; type: cell-based; settings: CaMHB, 18 h, 37°C
E. cloacae FADDI-EC001 = assay: MIC by broth microdilution; type: cell-based; settings: CaMHB, 18 h, 37°C
P. aeruginosa ATCC 27853 = assay: MIC by broth microdilution; type: cell-based; settings: CaMHB, 18 h, 37°C
A. baumannii FADDI-AB167 = assay: MIC by broth microdilution; type: cell-based; settings: CaMHB, 18 h, 37°C
[3] = system: K. pneumoniae FADDI-KP012; assay: MIC by broth microdilution; type: cell-based; settings: CaMHB, 18 h, 37°C
[4] = system: P. aeruginosa FADDI-PA090; assay: MIC by broth microdilution; type: cell-based; settings: CaMHB, 18 h, 37°C
[5] = system: K. pneumoniae FADDI-KP027; assay: MIC by broth microdilution; type: cell-based; settings: CaMHB, 18 h, 37°C
A. baumannii FADDI-AB156 = assay: MIC by broth microdilution; type: cell-based; settings: CaMHB, 18 h, 37°C
A. baumannii FADDI-AB110 = assay: MIC by broth microdilution; type: cell-based; settings: CaMHB, 18 h, 37°C
[6] = system: P. aeruginosa FADDI-PA025; assay: MIC by broth microdilution; type: cell-based; settings: CaMHB, 18 h, 37°C
A. baumannii ATCC 19606 = assay: MIC by broth microdilution; type: cell-based; settings: CaMHB, 18 h, 37°C
[7] = system: P. aeruginosa FADDI-PA070; assay: MIC by broth microdilution; type: cell-based; settings: CaMHB, 18 h, 37°C
[8] = molecular target: anti-polymyxin B mouse IgM monoclonal antibody (clone 45); type: binding; settings: SPR; for Kd: Biacore T200, 25°C, HBS-EP+, 1:1 kinetic fit or steady-state
E. cloacae FADDI-EC006 = assay: MIC by broth microdilution; type: cell-based; settings: CaMHB, 18 h, 37°C
E. cloacae FADDI-EC003 = assay: MIC by broth microdilution; type: cell-based; settings: CaMHB, 18 h, 37°C
A. baumannii ATCC 17978 = assay: MIC by broth microdilution; type: cell-based; settings: CaMHB, 18 h, 37°C
[9] = system: K. pneumoniae FADDI-KP032; assay: MIC by broth microdilution; type: cell-based; settings: CaMHB, 18 h, 37°C
[10] = system: P. aeruginosa FADDI-PA060; assay: MIC by broth microdilution; type: cell-based; settings: CaMHB, 18 h, 37°C

Substance | MIC [1] [mg/L] | MIC [2] [mg/L] | MIC (E. cloacae FADDI-EC001) [mg/L] | MIC (P. aeruginosa ATCC 27853) [mg/L] | MIC (A. baumannii FADDI-AB167) [mg/L] | MIC [3] [mg/L] | MIC [4] [mg/L] | MIC [5] [mg/L] | MIC (A. baumannii FADDI-AB156) [mg/L] | MIC (A. baumannii FADDI-AB110) [mg/L] | MIC [6] [mg/L] | MIC (A. baumannii ATCC 19606) [mg/L] | MIC [7] [mg/L] | Kd [8] [µM] | reduction in mAb binding affinity ([8]; compared to polymyxin B (FADDI-206/207: polymyxin B and colistin)) [fold] | MIC (E. cloacae FADDI-EC006) [mg/L] | MIC (E. cloacae FADDI-EC003) [mg/L] | MIC (A. baumannii ATCC 17978) [mg/L] | MIC [9] [mg/L] | MIC [10] [mg/L]
Octanoyl-Dab-Thr-Dab-Dab ^*-Dab-D-Leu-Leu-Dab-Dab-Thr ^* [Colistin] | 1 | 128 | 0.25 | 1 | 8 | 32 | 8 | >128 | 16 | 0.5 | 2 | 1 | >128 | 0.56 | 2 | <0.125 | <0.125 | 0.5 | 1 | >128
Octanoyl-Dab-Thr-Dab-Dab ^*-Dab-D-Phe-Leu-Dab-Dab-Thr ^* [Polymyxin B] | 1 | >32 | 0.25 | 1 | 16 | 16 | 4 | 128 | 8 | 0.5 | 1 | 1 | 32 | 0.26 |  | 0.5 | 0.5 | 1 | <0.125 | >32
